Measurements published in patent publication US20060024414A1, “Methods for preserving food products” (Kraft Foods Holdings, Inc., priority 2004, published 2006).

Assays:
Listeria monocytogenes [1] = details: cells sensitized with the antioxidant at the time of pressure treatment; Mackey et al. 1995; cited from earlier work
Listeria monocytogenes [2] = details: model milk system; Payne et al. 1989; cited from earlier work
[3] = tested on: Listeria monocytogenes OSY-328; assay: Inoculated bagged Vienna sausage challenge, warm enrichment/plating for survivors; assay type: cell-based; details: about 5 min; for Percentage of Bags Testing Positive For Listeria in Batch of 5 (±S.D.): sausage about 10^6 CFU/g; for Percentage of Bags Testing Positive For Listeria in Batch of 3 (±S.D.): TBHQ 300 ppm, sausage about 10^6 per g
Method: (§1) In another embodiment, a food substrate processed according to methods of this invention has nondetectable levels of Listeria (even if contamination has occurred). […] The mixture is incubated at 37° C. for 48 hours, followed by the enrichment (mixture) being streaked on Oxford agar or […] agar, and observing the streaked plate for the presence/absence of Listeria. […] Tailing effects also may be reduced or eliminated by methods of the present invention. The presence or absence of other microorganisms may be detected using similar techniques modified for the specific microorganism under consideration. The edible hydroquinone was tert-butylhydroquinone (TBHQ) at a level of either 0 or 100 ppm. The tert-butylhydroquinone was a food grade material obtained from Sigma Chemical Co. (St. Louis, Mo.). The lantibiotic was nisin at a level of either 0 or 100 IU/g. The nisin used was either pure nisin or a commercial nisin ([…]®), both from Aplin & Barrett, Ltd. (Trowbridge, England). […] Nisin samples were prepared by dissolving nisin powder in distilled water, adjusting the pH to 2 with HCl, and sterilizing at 121° C. for 10 minutes. Samples were prepared and used on the same day for each experiment. Three strains of Listeria monocytogenes were used in these challenge studies. Listeria monocytogenes Scott A, OSY-8578, and OSY-328, were obtained from the Food Safety Laboratory of the Department of Food Science and Technology at The Ohio State University (Columbus, Ohio). All experiments were carried out with cultures in stationary phase (grown in tryptose broth (TB; Difco Laboratories, Detroit, Mich.) for 18 hours at 37° C.). […] The hydrostatic pressure used was 600 MPa. For comparison purposes, samples were also treated with no hydrostatic pressure (i.e., under atmospheric pressure). A hydrostatic food processor (Quintus QFP-6, ABB Autoclave Systems, Inc., Columbus, Ohio) was used with a pressure transmitting fluid containing a water/propylene glycol (1:1 vol/vol; Houghto-Safe 620-TY, Houghton International, Inc., Valley Forge, Pa.). Samples were held in a refrigerator before processing and placed on ice following treatment. The temperature during each run was monitored using a thermocouple and a datalogger (Campbell Scientific, Inc., Logan, Utah). […] Canned Vienna sausage (Armour®, The Dial Corporation, Scottsdale, Ariz.) was purchased from local grocery stores. […] One milliliter of each additive, alone or in combinations, was added, and the bags were sealed using vacuum […], Kansas City, Mo.). […] Non-pressurized samples were treated in a similar manner except that no pressure was applied. After high pressure processing, bags were opened aseptically. […] The presence or absence of L. monocytogenes survivors in the samples was determined by streaking the incubated mixture onto Oxford agar and/or […] agar. Each test run consisted of 5 tested bags at a given set of variables; the experiment was repeated 4 times. Treatment conditions required for essentially total elimination of L. monocytogenes were determined using essentially the same materials and procedures as used in Example 1 except that the nisin level was 0, 100, or 200 IU/g; the hydroquinone level was 0, 100, 200, or 300 ppm; and each experiment was repeated 3 times.

[4] = tested on: Listeria monocytogenes OSY-8578; assay: as above; assay type: cell-based; details: about 5 min; for Percentage of Bags Testing Positive For Listeria in Batch of 5 (±S.D.): sausage about 10^6 CFU/g; for Percentage of Bags Testing Positive For Listeria in Batch of 3 (±S.D.): TBHQ 300 ppm, sausage about 10^6 per g
Method: as §1

[5] = tested on: Listeria monocytogenes Scott A; assay: as above; assay type: cell-based; details: about 5 min; for Percentage of Bags Testing Positive For Listeria in Batch of 5 (±S.D.): sausage about 10^6 CFU/g; for Percentage of Bags Testing Positive For Listeria in Batch of 3 (±S.D.): TBHQ 300 ppm, sausage about 10^6 per g
Method: as §1

[6] = tested on: Listeria monocytogenes OSY-328; assay: Pressure inactivation in phosphate buffer, plate count; assay type: cell-based; details: TBHQ about 100 ppm
Method: (§2) Three strains of Listeria monocytogenes identified in Example 1 were grown in tryptose broth for 18 hours at 37° C. Cultures were centrifuged at 10,000 rpm for 15 minutes at 4° C. Cell pellets were resuspended in phosphate buffer (pH 7.0) and the cell population of each strain was adjusted to 10^9 CFU/ml. Tert-butylhydroquinone was added at about 100 ppm (10% vol/vol TBHQ/culture). Preparation of sample bags and the high pressure treatment procedures were same as indicated in Example 1. Pressures tested were 300, 500, and 700 MPa. Control and high pressure-treated treated samples were serially diluted in 0.1% peptone water and spread-plated on tryptose agar. The plates were incubated at 37° C. for 48-72 hours and the colonies were counted.
(§3) The detection level for enumeration was 10 CFU/ml. The initial population of OSY-328 averaged about 8.9 logs; therefore, more than 7.9 log reduction indicates below the detection level.

[7] = tested on: Listeria monocytogenes OSY-8578; assay: as above; assay type: cell-based; details: TBHQ about 100 ppm
Method: as §2, §3

[8] = tested on: Listeria monocytogenes Scott A; assay: as above; assay type: cell-based; details: TBHQ about 100 ppm
Method: as §2, §3

[9] = tested on: Listeria monocytogenes strains; assay: Tailing behaviour during pressure treatment in phosphate buffer; assay type: cell-based; details: combination of high pressure (300, 500, 700 MPa) and TBHQ about 100 ppm
Method: as §2, §3

[10] = Run 3: 0 MPa, nisin 0 IU/g, TBHQ 100 ppm
[11] = Run 7: 600 MPa, nisin 0 IU/g, TBHQ 100 ppm
[12] = 300 MPa, 0 min (come-up, immediate depressurization)
[13] = 500 MPa, 0 min (come-up, immediate depressurization)
[14] = 700 MPa, 0 min (come-up, immediate depressurization)
[15] = Run 2: 0 MPa, nisin 100 IU/g, TBHQ 0 ppm
[16] = Run 6: 600 MPa, nisin 100 IU/g, TBHQ 0 ppm

Molecule: COc1ccc(O)c(C(C)(C)C)c1 [BHA, butylated hydroxyanisole]
- resistance of Listeria monocytogenes to high hydrostatic pressure treatment (sensitizing effect) (Listeria monocytogenes [1]): reduced

Molecule: Cc1cc(C(C)(C)C)c(O)c(C(C)(C)C)c1 [BHT, Butylated hydroxy toluene]
- resistance of Listeria monocytogenes to high hydrostatic pressure treatment (sensitizing effect) (Listeria monocytogenes [1]): not effective

Molecule: CCCOC(=O)c1ccc(O)cc1 [Propyl paraben]
- antimicrobial activity against Listeria monocytogenes (Listeria monocytogenes [2]): only consistently active inhibitor

Molecule: CC(C)(C)c1cc(O)ccc1O [TBHQ, tert-butylhydroquinone]
- Percentage of Bags Testing Positive For Listeria in Batch of 5 (±S.D.) [3, 10]: 100%
- Percentage of Bags Testing Positive For Listeria in Batch of 5 (±S.D.) [3, 11]: 20 (±16) %
- Percentage of Bags Testing Positive For Listeria in Batch of 3 (±S.D.) ([3]; Run 10: 0 MPa, nisin 0 IU/g): 100%
- Percentage of Bags Testing Positive For Listeria in Batch of 3 (±S.D.) ([3]; Run 15: 600 MPa, nisin 0 IU/g): 0%
- Percentage of Bags Testing Positive For Listeria in Batch of 5 (±S.D.) [4, 10]: 100%
- Percentage of Bags Testing Positive For Listeria in Batch of 5 (±S.D.) [4, 11]: 25 (±30) %
- Percentage of Bags Testing Positive For Listeria in Batch of 3 (±S.D.) ([4]; Run 10: 0 MPa, nisin 0 IU/g): 100%
- Percentage of Bags Testing Positive For Listeria in Batch of 3 (±S.D.) ([4]; Run 15: 600 MPa, nisin 0 IU/g): 0%
- Percentage of Bags Testing Positive For Listeria in Batch of 5 (±S.D.) [5, 10]: 100%
- Percentage of Bags Testing Positive For Listeria in Batch of 5 (±S.D.) [5, 11]: 15 (±30) %
- Percentage of Bags Testing Positive For Listeria in Batch of 3 (±S.D.) ([5]; Run 10: 0 MPa, nisin 0 IU/g): 100%
- Percentage of Bags Testing Positive For Listeria in Batch of 3 (±S.D.) ([5]; Run 15: 600 MPa, nisin 0 IU/g): 0%
- Average Log Reduction [6, 12]: 0 log
- Average Log Reduction ([6]; 300 MPa, 1 min): 0 log
- Average Log Reduction ([6]; 300 MPa, 5 min): 0 log
- Average Log Reduction ([6]; 300 MPa, 10 min): 0.2 log
- Average Log Reduction ([6]; 300 MPa, 20 min): 1.0 log
- Average Log Reduction ([6]; 300 MPa, 30 min): 1.6 log
- Average Log Reduction ([6]; 300 MPa, 40 min): 2.3 log
- Average Log Reduction ([6]; 300 MPa, 50 min): 2.4 log
- Average Log Reduction ([6]; 300 MPa, 60 min): 3.1 log
- Average Log Reduction [6, 13]: 0.2 log
- Average Log Reduction ([6]; 500 MPa, 5 min): 7.6 log
- Average Log Reduction ([6]; 500 MPa, 10 min): 7.8 log
- Average Log Reduction ([6]; 500 MPa, 20 min): ≧7.9 log
- Average Log Reduction ([6]; 500 MPa, 30 min): 7.8 log
- Average Log Reduction ([6]; 500 MPa, 40 min): ≧7.9 log
- Average Log Reduction ([6]; 500 MPa, 50 min): ≧7.9 log
- Average Log Reduction [6, 14]: 5.3 log
- Average Log Reduction ([6]; 700 MPa, 1 min): ≧8.0 log
- Average Log Reduction ([6]; 700 MPa, 5 min): ≧8.0 log
- Average Log Reduction ([6]; 700 MPa, 10 min): ≧7.9 log
- Average Log Reduction ([6]; 700 MPa, 15 min): ≧7.9 log
- Average Log Reduction ([6]; 700 MPa, 20 min): 7.8 log
- Average Log Reduction ([6]; 700 MPa, 30 min): ≧8.0 log
- Average Log Reduction [7, 12]: 0 log
- Average Log Reduction ([7]; 300 MPa, 1 min): 0.2 log
- Average Log Reduction ([7]; 300 MPa, 5 min): 0.2 log
- Average Log Reduction ([7]; 300 MPa, 10 min): 0.8 log
- Average Log Reduction ([7]; 300 MPa, 20 min): 3.8 log
- Average Log Reduction ([7]; 300 MPa, 30 min): 5.0 log
- Average Log Reduction ([7]; 300 MPa, 40 min): 5.7 log
- Average Log Reduction ([7]; 300 MPa, 50 min): 7.2 log
- Average Log Reduction [7, 13]: 0.2 log
- Average Log Reduction ([7]; 500 MPa, 1 min): 7.2 log
- Average Log Reduction ([7]; 500 MPa, 5 min): 7.6 log
- Average Log Reduction ([7]; 500 MPa, 10 min): ≧8.0 log
- Average Log Reduction ([7]; 500 MPa, 20 min): 7.9 log
- Average Log Reduction ([7]; 500 MPa, 30 min): 7.8 log
- Average Log Reduction ([7]; 500 MPa, 40 min): ≧8.0 log
- Average Log Reduction [7, 14]: 7.6 log
- Average Log Reduction ([7]; 700 MPa, 0.5 min): 7.7 log
- Average Log Reduction ([7]; 700 MPa, 1 min): 7.8 log
- Average Log Reduction ([7]; 700 MPa, 5 min): ≧8.0 log
- Average Log Reduction ([7]; 700 MPa, 10 min): ≧8.0 log
- Average Log Reduction ([7]; 700 MPa, 15 min): ≧8.0 log
- Average Log Reduction ([7]; 700 MPa, 20 min): ≧8.0 log
- Average Log Reduction [8, 12]: 0 log
- Average Log Reduction ([8]; 300 MPa, 1 min): 0 log
- Average Log Reduction ([8]; 300 MPa, 5 min): 2.2 log
- Average Log Reduction ([8]; 300 MPa, 10 min): 6.5 log
- Average Log Reduction ([8]; 300 MPa, 20 min): 7.3 log
- Average Log Reduction ([8]; 300 MPa, 30 min): 7.3 log
- Average Log Reduction ([8]; 300 MPa, 40 min): ≧8.0 log
- Average Log Reduction [8, 13]: 3.8 log
- Average Log Reduction ([8]; 500 MPa, 1 min): 7.9 log
- Average Log Reduction ([8]; 500 MPa, 5 min): 8.0 log
- Average Log Reduction ([8]; 500 MPa, 10 min): ≧8.0 log
- Average Log Reduction ([8]; 500 MPa, 15 min): ≧8.0 log
- Average Log Reduction ([8]; 500 MPa, 20 min): ≧8.0 log
- Average Log Reduction ([8]; 500 MPa, 30 min): ≧8.0 log
- Average Log Reduction [8, 14]: 7.7 log
- Average Log Reduction ([8]; 700 MPa, 0.5 min): 7.5 log
- Average Log Reduction ([8]; 700 MPa, 1 min): ≧8.0 log
- Average Log Reduction ([8]; 700 MPa, 2 min): ≧8.0 log
- Average Log Reduction ([8]; 700 MPa, 5 min): ≧8.0 log
- Average Log Reduction ([8]; 700 MPa, 10 min): ≧8.0 log
- Average Log Reduction ([8]; 700 MPa, 15 min): ≧8.0 log
- tailing phenomenon [9]: eliminated the tailing phenomenon

Molecule: nisin (ITSISLCTPGCKTGALMGCNMKTATCHCSIHVSK; not fully specified; Lantibiotic nisin-A; UniProt P13068 24-57, looked up) [lantibiotic; antimicrobial polypeptide produced by Lactococcus lactis; pure nisin or commercial Nisaplin from Aplin & Barrett]
- Percentage of Bags Testing Positive For Listeria in Batch of 5 (±S.D.) [3, 15]: 100%
- Percentage of Bags Testing Positive For Listeria in Batch of 5 (±S.D.) [3, 16]: 10 (±20) %
- Percentage of Bags Testing Positive For Listeria in Batch of 5 (±S.D.) [4, 15]: 100%
- Percentage of Bags Testing Positive For Listeria in Batch of 5 (±S.D.) [4, 16]: 30 (±38) %
- Percentage of Bags Testing Positive For Listeria in Batch of 5 (±S.D.) [5, 15]: 100%
- Percentage of Bags Testing Positive For Listeria in Batch of 5 (±S.D.) [5, 16]: 15 (±19) %
